Source: patent US20240034717A1, “NOVEL POTASSIUM CHANNEL INHIBITORS” (Saniona A/S, priority 2020, published 2024)
Values joined by “and” are separate entries in the source; they are usually repeats but may differ in a detail not shown here. Equal values may be shown once.

How the values were obtained:
physchem = settings: for solubility at 16 h: 25 °C, pH 7.4, aqueous buffer, kinetic from dmso stock; for Measured Solubility in pH 7.4 phosphate buffer (mg/ml) / Measured Solubility in pH 7.4 phosphate buffer (μM): 50 mM potassium phosphate buffer pH 7.40, 16 hr at ~25° C., incubation concentration 1600 μM
Procedure: 2.79 g of K2HPO4 and 0.54 g of KH2PO4 was dissolved in 390 mL of milliQ water. pH was adjusted to 7.4 using 1N HCl/1N NaOH and final volume was made up to 400 mL with milliQ water.
In case of compounds not soluble/less quantity submission, 40/20/10Mm stocks were prepared and used for experiment.
Assay Procedure: • 245 μL of 50 mM phosphate buffer then 5 μL each of test compound/standards (80 mM) in their respective positions was added to the 1.1 mL 96 well plate. • DMSO Controls was prepared by taking 245 μL of 100% DMSO then 5 μL each of test compound in their respective positions and added to the 1.1 mL 96 well plate • Plate was incubated with mixing at 1600 RPM for 16 hours at room temperature (˜23 MC). • After incubation, samples were filtered using Millipore plates. • Filtrates were analysed by HPLC-UV.
Solubility is calculated using the following formula: […]

[1] = target: erythrocyte KCa3.1 channels (Homo sapiens (Human), UniProt O15554); test: Erythrocyte KCa3.1 assay; format: cell-based; settings: human erythrocytes, A23187-activated KCa3.1; read-out: RBC K (in vitro) Human IC50 (μM) Potency category
Procedure: Human blood was drawn from healthy human volunteers in a standard heparinized blood sampling vial (Vacutainer, Li/heparin, ED Bioscience, Plymouth, UK). The erythrocytes were packed by centrifugation, and the plasma and buffy coat were removed by aspiration. Erythrocytes were washed three times in the experimental salt solution and then stored at 0° C. until use. Blood samples from NMRI mice or from Wistar rats were treated similarly. The methodological principle is outlined in Macey et al. (1978) and further described in Strøbaek et al. (2013). Activation of the erythrocyte KCa3.1 channels were obtained by addition of the Ca^2+ ionophore A23187, which causes synchronized hyperpolarization, which is reported as a CCCP-mediated shift in the unbuffered extracellular pH of the erythrocyte suspension. Standard procedure: 3 mL unbuffered experimental salt solution (in mM: 2 KCl, 154 NaCl, 0.05 CaCl2) was heated to 37° C. with stirring. Packed erythrocytes were added (50 μL, final cytocrit 1.5%), and the extracellular pH (pHo) followed with a glass/calomel (pHG200-8/REF200, Radiometer, Denmark) electrode pair. CCCP (3 μL, final concentration 20 μM) was added followed by varying concentrations of test compounds (DMSO concentration constant). After pH stabilization at ˜7.2, A23187 (3 μL, final concentration 0.33 μM) was added to initiate the experiment. After the peak hyperpolarization was attained, the intracellular pH (pHi constant during the experiment) was found by haemolysing the erythrocytes via addition of 100 μL of Triton-X100.
The erythrocyte membrane potential, Vm, was calculated according to: […]
and the fractional remaining Ca^2+-activated K^+-conductance at the concentration C of blocker, fGK(C), was calculated from
where the K^+ equilibrium potential EK=−107 mV, the Cl^− equilibrium potential ECl=−12 mV and the Vm(0) and Vm(C) are the peak hyperpolarizations in the control and in the presence of a concentration of C of blocker respectively.
IC50 values for compounds were calculated from a plot of fGK(C) versus C by a fit to the Hill equation, using a custom program written in the IGOR-Pro software (WaveMetrics, Lake Oswego, OR, USA). All IC50-values are reported in μM.

[2] = cited from earlier work
mouse model of ARDS = settings: treatment; cited from earlier work

Structure (SMILES) | solubility at 16 h (physchem) | IC50 [1] [µM] | Measured Solubility in pH 7.4 phosphate buffer (mg/ml) (physchem) | Measured Solubility in pH 7.4 phosphate buffer (μM) (physchem) | Water solubility [2] | Gas exchange (mouse model of ARDS)
COC(=O)N(C[C@@]1(C)CCCN1)C1(c2ccc(F)c(C(F)(F)F)c2)CC1 [Methyl (R)-(1-(4-fluoro-3-(trifluoromethyl)phenyl)cyclopropyl)((2-methylpyrrolidin-2-yl)methyl)carbamate] | 585 µg/mL and 1400 µM | < 0.3 | – | – | – | –
COC(=O)N(C[C@H]1CCCN1)C1(c2ccc(F)c(C(F)(F)F)c2)CC1 [Methyl (R)-(1-(4-fluoro-3-(trifluoromethyl)phenyl)cyclopropyl)(pyrrolidin-2-ylmethyl)carbamate] | 667 µg/mL and 1700 µM | < 0.3 | – | – | – | –
COC(=O)N(C[C@]1(C)CCCN1)C1(c2ccc(F)c(C(F)(F)F)c2)CC1 [Methyl (S)-(1-(4-fluoro-3-(trifluoromethyl)phenyl)cyclopropyl)((2-methylpyrrolidin-2-yl)methyl)carbamate] | 575 µg/mL and 1400 µM | < 0.3 | – | – | – | –
COC(=O)N(C[C@H]1COCCN1)C1(c2ccc(F)c(C(F)(F)F)c2)CC1 [Methyl (S)-(1-(4-fluoro-3-(trifluoromethyl)phenyl)cyclopropyl)(morpholin-3-ylmethyl) carbamate] | – | < 1 | 0.6118 | 1500 | – | –
COC(=O)N(CC1CCN1)C1(c2ccc(F)c(OC(F)(F)F)c2)CC1 (centres unmarked) [Methyl (azetidin-2-ylmethyl)(1-(4-fluoro-3-(trifluoromethoxy)phenyl)cyclopropyl)carbamate] | 558 µg/mL and 1500 µM | < 0.3 | – | – | – | –
COC(=O)N(CCN(C)C)C1(c2ccc(F)c(C(F)(F)F)c2)CC1 [Methyl N-(2-(dimethylamino)ethyl)-N-(1-(4-fluoro-3-(trifluoromethyl)phenyl)cyclopropyl) carbamate] | – | < 1 | 0.5409 | 1600 | – | –
CC(C)(N)CNC1(c2ccc(F)c(C(F)(F)F)c2)CC1 [N1-(1-(4-fluoro-3-(trifluoromethyl)phenyl)cyclopropyl)-2-methylpropane-1,2-diamine] | 482 µg/mL and 1700 µM | < 0.3 | – | – | – | –
CC(C)(N)CN(CC1CC1)C1(c2ccc(F)c(C(F)(F)F)c2)CC1 [N1-(cyclopropylmethyl)-N1-(1-(4-fluoro-3-(trifluoromethyl)phenyl)cyclopropyl)-2-methyl propane-1,2-diamine] | 511 µg/mL and 1500 µM | < 0.3 | – | – | – | –
CC(C)(N)CN(C(=O)C1CC1)C1(c2ccc(F)c(C(F)(F)F)c2)CC1 [N-(2-amino-2-methylpropyl)-N-(1-(4-fluoro-3-(trifluoromethyl)phenyl)cyclopropyl)cyclopropanecarboxamide] | 582 µg/mL and 1200 µM | < 1 | – | – | – | –
NC1(CNC2(c3ccc(F)c(C(F)(F)F)c3)CC2)CC1 [N-((1-aminocyclopropyl)methyl)-1-(4-fluoro-3-(trifluoromethyl)phenyl)cyclopropan-1-amine] | 464 µg/mL and 1400 µM | < 0.3 | – | – | – | –
Clc1ccccc1C(c1ccccc1)(c1ccccc1)n1cccn1 [TRAM-34] | – | – | – | – | extremely low | improvement was also demonstrated
NC(=O)C(c1ccccc1)(c1ccc(F)cc1)c1ccc(F)cc1 [senicapoc] | – | – | – | – | extremely low | improvement was also demonstrated

Further lines, with some results ahead:

solubility at 16 h (physchem) | IC50 [1] [µM] | Measured Solubility in pH 7.4 phosphate buffer (mg/ml) (physchem) | Measured Solubility in pH 7.4 phosphate buffer (μM) (physchem) | Structure (SMILES) | Water solubility [2] | Gas exchange (mouse model of ARDS)
558 µg/mL and 1500 µM | < 0.3 | – | – | COC(=O)N(C[C@H]1CCCN1C)C1(c2ccc(F)c(C(F)(F)F)c2)CC1 [Methyl (R)-(1-(4-fluoro-3-(trifluoromethyl)phenyl)cyclopropyl)((1-methylpyrrolidin-2-yl)methyl)carbamate] | – | –
674 µg/mL and 1600 µM | < 0.3 | – | – | COC(=O)N(C[C@@H]1CCCN1)C1(c2ccc(F)c(OC(F)(F)F)c2)CC1 [Methyl (S)-(1-(4-fluoro-3-(trifluoromethoxy)phenyl)cyclopropyl)(pyrrolidin-2-ylmethyl)carbamate] | – | –
– | < 0.3 | 0.5918 | 1600 | COC(=O)N(C[C@@H]1CCCN1C)C1(c2ccc(F)c(C(F)(F)F)c2)CC1 [Methyl (S)-(1-(4-fluoro-3-(trifluoromethyl)phenyl)cyclopropyl) ((1-methylpyrrolidin-2-yl)methyl) carbamate] | – | –
600 µg/mL and 1500 µM | < 0.3 | – | – | COC(=O)N(C[C@H]1COCCN1C)C1(c2ccc(F)c(C(F)(F)F)c2)CC1 [Methyl (S)-(1-(4-fluoro-3-(trifluoromethyl)phenyl)cyclopropyl)((4-methylmorpholin-3-yl)methyl)carbamate] | – | –
653 µg/mL and 1600 µM | < 0.3 | – | – | COC(=O)N(C[C@@H]1CCCN1)C1(c2ccc(F)c(C(F)(F)F)c2)CC1 [Methyl (S)-(1-(4-fluoro-3-(trifluoromethyl)phenyl)cyclopropyl)(pyrrolidin-2-ylmethyl)carbamate] | – | –
591 µg/mL and 1700 µM | < 1 | – | – | COC(=O)N(C[C@@H]1CCN1)C1(c2ccc(F)c(C(F)(F)F)c2)CC1 [Methyl (S)-(azetidin-2-ylmethyl)(1-(4-fluoro-3-(trifluoromethyl)phenyl)-cyclopropyl)carbamate] | – | –
687 µg/mL and 1500 µM | < 0.3 | – | – | COC(=O)N(CC1CCN1)C1(c2ccc(F)c(C(F)(F)F)c2)CC1 (centres unmarked) [Methyl (azetidin-2-ylmethyl)(1-(4-fluoro-3-(trifluoromethyl)phenyl)cyclopropyl)carbamate] | – | –
481 µg/mL and 1400 µM | < 0.3 | – | – | CC(C)(N)CN(C1CC1)C1(c2cccc(C(F)(F)F)c2)CC1 [N1-cyclopropyl-2-methyl-N1-(1-(3-(trifluoromethyl)phenyl)cyclopropyl)propane-1,2-diamine] | – | –
565 µg/mL and 1500 µM | < 0.3 | – | – | CC(C)(N)CN(C1(c2ccc(F)c(C(F)(F)F)c2)CC1)S(C)(=O)=O [N-(2-amino-2-methylpropyl)-N-(1-(4-fluoro-3-(trifluoromethyl)phenyl)cyclopropyl)methanesulfonamide] | – | –
679 µg/mL and 1500 µM | < 0.3 | – | – | Fc1ccc(C2(N(CC3CC3)C3CNC3)CC2)cc1C(F)(F)F [N-(cyclopropylmethyl)-N-(1-(4-fluoro-3-(trifluoromethyl)phenyl)cyclopropyl)azetidin-3-amine] | – | –
